Test results taken from ChEMBL document CHEMBL1201862, “PubChem BioAssay data set” (2004).
Calls of active or inactive are those of the source.

Legend:
[1] = target: T1, Small ubiquitin-related modifier 1 (Homo sapiens, UniProt P63165); test: inhibitors of SUMO1 partner interactions, dose response, biochemical, FRET (AID 624383); format: functional; details: read-out: IC50_Mean
[2] = target: T1, Small ubiquitin-related modifier 1; test: inhibitors of SUMO1 peptide binding, dose response, biochemical, fluorescence polarization, uHTS hits (AID 624382); format: functional; details: read-out: IC50_Mean
[3] = NIH-3T3 fibroblast cytotoxicity, dose response, cytotoxicity control for antifungal single agent project, cell-based, Alamar Blue, dry powder (AID 602188); format: functional
[4] = cells; format: functional, cell-based
[5] = inhibitors of intracellular T. cruzi replication, confirmation, NIH3T3 host cells, beta-gal luminescence (AID 2044); format: functional, cell-based;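 also: intracellular parasites grown in NIH/3T3 mouse fibroblasts as host cells; luminescent beta-galactosidase reporter signal from transgenic T. cruzi replicating inside host cells; inhibitors lower the luminescence signal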
[6] = target: ATP-dependent molecular chaperone HSP82 (Candida albicans (strain WO-1) (Yeast), UniProt C4YTQ8); test: loss of DOC-induced GRE-beta-galactosidase reporter signal, dose response, Hsp90 inhibitor project, S. cerevisiae, luminescence (AID 2400); format: functional, cell-based;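 also: beta-galactosidase luminescence from glucocorticoid response element reporter as proxy for Hsp90 function; inhibitor potency where signal loss means Hsp90 inhibition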
[7] = tested on: Vero; test: cells; format: functional; details: Chlorocebus sabaeus
[8] = cytotoxicity toward NIH3T3 fibroblasts, dose response, counter-screen, cell-based, ATP luminescence, mouse fibroblasts (AID 2010); format: functional;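 also: cells exposed to compound for about 90 hours before reading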
[9] = cells; format: functional, cell-based; remark: listed apart in the source
[10] = tested on: INS1; test: beta cell apoptosis inhibitors, cytokine rescue, dose response, luminescence, retest (AID 449756); format: functional, cell-based; details: Rattus norvegicus;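 also: cell death triggered by IL-1 beta plus TNF-alpha plus IFN-gamma mixture; protective hits raise ATP signal compared with cytokine alone wells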
[11] = target: T2, Serine/threonine-protein phosphatase (Candida dubliniensis (strain CD36 / CBS 7987 / NCPF 3949 / NRRLY-17841) (Yeast), UniProt B9W6M3); test: calcineurin pathway inhibitors in yeast reporter, dose response, S. cerevisiae, CDRE-lacZ, luminescence, secondary (AID 2388); format: functional, cell-based;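 also: yeast reporter cells carrying a calcineurin-responsive lacZ construct stimulated with calcium chloride; luminescent beta-galactosidase reporter signal in whole cells rather than isolated phosphatase activity; potency for inhibition where a drop in reporter signal means calcineurin blockade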
T2 sequence (B9W6M3 whole entry): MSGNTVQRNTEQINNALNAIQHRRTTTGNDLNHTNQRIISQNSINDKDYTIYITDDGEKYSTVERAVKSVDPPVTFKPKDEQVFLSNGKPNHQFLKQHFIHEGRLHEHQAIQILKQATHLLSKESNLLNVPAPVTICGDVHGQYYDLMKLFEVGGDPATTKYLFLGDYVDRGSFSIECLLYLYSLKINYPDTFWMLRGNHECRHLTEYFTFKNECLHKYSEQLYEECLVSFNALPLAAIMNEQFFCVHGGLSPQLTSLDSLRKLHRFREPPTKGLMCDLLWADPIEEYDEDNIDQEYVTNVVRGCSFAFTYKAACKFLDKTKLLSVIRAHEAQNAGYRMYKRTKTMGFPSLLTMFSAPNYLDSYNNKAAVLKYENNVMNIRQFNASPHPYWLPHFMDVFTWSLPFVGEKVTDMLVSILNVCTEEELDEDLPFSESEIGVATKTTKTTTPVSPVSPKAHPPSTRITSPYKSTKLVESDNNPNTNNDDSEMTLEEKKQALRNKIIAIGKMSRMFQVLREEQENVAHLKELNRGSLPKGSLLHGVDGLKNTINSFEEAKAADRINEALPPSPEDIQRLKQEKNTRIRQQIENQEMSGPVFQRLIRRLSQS

[12] = NIH-3T3 fibroblast cytotoxicity, dose response, cytotoxicity control, cell-based, fluorescence, Alamar Blue, secondary assay (AID 2327); format: functional;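 also: NIH-3T3 mouse fibroblasts cultured with fluconazole at 8 µg/mL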
[13] = C. albicans growth with fluconazole, confirmation, fluorescence, retest (AID 2467); format: functional, cell-based
[14] = tested on: Streptococcus sp. 'group A'; test: growth inhibition of control SK(-) GAS strain, dose response, counter-screen for streptokinase expression inhibitor project, luminescence, kanamycin, BacTiterGlo, confirmation (AID 1900); format: functional, organism-based
[15] = target: T3, Streptokinase A (Streptococcus pyogenes serotype M1, UniProt P10520); test: S. pyogenes streptokinase expression inhibitors, potency, dose response, plasminogen activation absorbance, OD405 (AID 1914); format: functional, Streptococcus pyogenes M1 GAS;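 also: secreted streptokinase activity via plasminogen activation per viability signal from cell pellet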
T3 sequence (P10520 whole entry): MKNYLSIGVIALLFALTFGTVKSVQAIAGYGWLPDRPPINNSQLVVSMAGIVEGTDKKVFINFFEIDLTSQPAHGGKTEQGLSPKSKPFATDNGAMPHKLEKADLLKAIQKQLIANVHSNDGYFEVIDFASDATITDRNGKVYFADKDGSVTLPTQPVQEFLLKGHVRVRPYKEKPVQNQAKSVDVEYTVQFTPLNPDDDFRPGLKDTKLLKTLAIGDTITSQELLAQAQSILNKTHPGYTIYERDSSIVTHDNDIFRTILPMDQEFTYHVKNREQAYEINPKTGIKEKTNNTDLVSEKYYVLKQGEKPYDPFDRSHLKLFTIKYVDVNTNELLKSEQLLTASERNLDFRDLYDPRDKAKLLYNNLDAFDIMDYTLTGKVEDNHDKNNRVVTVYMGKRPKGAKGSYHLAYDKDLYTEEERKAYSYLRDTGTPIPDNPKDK

[16] = tested on: Streptococcus; test: Group A Streptococcus viability loss, dose response, counter-screen for streptokinase expression inhibitor project, luminescence, BacTiterGlo (AID 1915); format: functional, organism-based;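 also: potency for reduction of bacterial viability or growth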
[17] = target: Heat shock protein HSP 90-alpha (Homo sapiens, UniProt P07900); format: functional, organism-based
[18] = target: Melanocortin receptor 4 (Homo sapiens, UniProt P32245); format: functional, cell-based;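 also: Cell-based assay with luminescence read-out, confirmatory dose-response testing for agonist activity of biased ligands at MC4R; human U2OS cells with tagged receptor and beta-arrestin; potency of agonists that increase receptor coupling to beta-arrestin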
[19] = Luminescence Cell-Based Dose Confirmation HTS to Identify Activators of 5'UTR Stem-Loop Driven Alpha-Synuclein mRNA Translation in H4 Neuroglioblastoma Cells. [Related pubchem assays: 1829 (Project Summary), 1814 (Primary HTS)]; format: functional
[20] = tested on: H4; test: Luminescence Cell-Based Dose Response HTS to Identify Activators of 5'UTR Stem-Loop Driven Prion Protein mRNA Translation in H4 Neuroglioblastoma Cells. [Related pubchem assays: 1829 (Project Summary), 1814 (Primary HTS)]; format: functional; details: Homo sapiens
[21] = Luminescence Cell-Based Dose Response HTS to Identify Activators of Luciferase Translation or Activity in H4 […] Cells. [Related pubchem assays: 1829 (Project Summary), 1814 (Primary HTS)]; format: functional
[22] = target: Protein Wnt-3a (Mus musculus, UniProt P27467); test: Wnt3a-driven reporter signaling inhibition, dose response, selectivity assay for Gli-SUFU antagonist project, Wnt-LIGHT cells, luminescence (AID 651570); format: functional; details: read-out: IC50_Mean;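 also: Wnt-LIGHT reporter cells stimulated with conditioned medium from Wnt3a-producing cells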
[23] = Counterscreen for activators of the function of SWI/SNF related, matrix associated, actin dependent regulator of chromatin, subfamily a, member 2 (SMARCA2, BRM): Luminescence-based cell-based high throughput dose response assay to identify non-selective compounds using the VP16 reporter assay.; format: functional
[24] = target: SWI/SNF-related matrix-associated actin-dependent regulator of chromatin subfamily A member 2 (Homo sapiens, UniProt P51531); test: Luminescence-based cell-based high throughput dose response assay to identify activators of the function of SWI/SNF related, matrix associated, actin dependent regulator of chromatin, subfamily a, member 2 (SMARCA2, BRM).; format: functional
[25] = target: T4, Long-chain-fatty-acid--AMP ligase FadD28 (Mycobacterium tuberculosis, UniProt P9WQ59); test: Fluorescence polarization aasay to screen for inhibitors that compete for the binding of FadD28 to a bisubstrate Measured in Biochemical System Using Plate Reader - 2147-01_Inhibitor_Dose_CherryPick_Activity.; format: functional, Mycobacterium tuberculosis H37Rv
T4 sequence (P9WQ59 whole entry): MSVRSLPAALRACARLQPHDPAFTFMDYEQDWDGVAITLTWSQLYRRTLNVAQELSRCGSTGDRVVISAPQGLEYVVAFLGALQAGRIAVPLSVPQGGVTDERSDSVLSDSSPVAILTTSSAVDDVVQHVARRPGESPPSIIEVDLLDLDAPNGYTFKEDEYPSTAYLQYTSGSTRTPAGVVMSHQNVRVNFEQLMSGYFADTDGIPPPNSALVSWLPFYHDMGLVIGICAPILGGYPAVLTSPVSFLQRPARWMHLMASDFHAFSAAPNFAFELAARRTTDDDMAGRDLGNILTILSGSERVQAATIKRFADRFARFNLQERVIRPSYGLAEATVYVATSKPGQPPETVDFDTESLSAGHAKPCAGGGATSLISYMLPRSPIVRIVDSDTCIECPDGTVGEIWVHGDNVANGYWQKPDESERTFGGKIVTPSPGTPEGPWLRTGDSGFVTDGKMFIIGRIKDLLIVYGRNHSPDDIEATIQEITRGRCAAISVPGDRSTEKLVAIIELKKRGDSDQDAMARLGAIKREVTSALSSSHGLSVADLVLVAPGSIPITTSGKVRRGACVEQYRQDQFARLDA

[26] = target: T5, COUP transcription factor 2 (Homo sapiens, UniProt P24468); test: Luminescence-based cell-based high throughput dose response assay to identify inhibitors of COUP-TFII (NR2F2).; format: functional;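 also: HEK293 cells transiently cotransfected with COUP-TFII expression vector and reporter; luciferase reporter luminescence driven by COUP-TFII from the pX2-168 reporter plasmid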
T5 sequence (P24468 whole entry): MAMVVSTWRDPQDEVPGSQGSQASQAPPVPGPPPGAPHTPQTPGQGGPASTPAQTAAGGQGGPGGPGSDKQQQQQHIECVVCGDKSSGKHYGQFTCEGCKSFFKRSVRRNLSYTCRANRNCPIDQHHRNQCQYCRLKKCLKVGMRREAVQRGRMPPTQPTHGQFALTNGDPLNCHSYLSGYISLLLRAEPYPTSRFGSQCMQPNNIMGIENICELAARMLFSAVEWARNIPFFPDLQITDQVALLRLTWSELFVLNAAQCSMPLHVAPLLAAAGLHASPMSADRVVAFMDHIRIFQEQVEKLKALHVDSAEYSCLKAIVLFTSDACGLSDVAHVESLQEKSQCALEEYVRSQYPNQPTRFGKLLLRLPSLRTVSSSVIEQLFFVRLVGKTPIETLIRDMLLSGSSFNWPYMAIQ

[27] = miR-122 activators in hepatoma reporter cells, dose response, cell-based, Huh7 psiCHECK-miR122, Renilla luciferase, cherry-picked (AID 651956); format: functional;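 also: huh7 hepatoma cells stably carrying a psiCHECK-2 miR-122 sensor plasmid; renilla luciferase signal reporting endogenous miR-122 activity after 48 h compound exposure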
[28] = target: Glucose-6-phosphate 1-dehydrogenase (Homo sapiens, UniProt P11413); test: human G6PD enzyme inhibitors, dose response, selectivity assay for P. falciparum G6PD inhibitor project, biochemical, fluorescence (AID 504792); format: functional
[29] = target: Voltage-dependent T-type calcium channel subunit alpha-1H (Homo sapiens, UniProt O95180); format: functional;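 also: channel activity triggered by adding a high calcium stimulation buffer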
[30] = tested on: H9c2; test: cells; format: functional, cell-based; details: Rattus norvegicus, H9c2, Myocardium;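 also: confirmatory concentration-response retest of ultra-high-throughput screening hits for modulation of myocardial damage; cell death induced by hydrogen peroxide oxidative stress; compound pretreatment for 60 min then peroxide exposure for 2 h; potency is for protecting the cells against peroxide damage rather than for killing them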
[31] = target: T6, Mitochondrial peptide methionine sulfoxide reductase (Bos taurus, UniProt P54149); format: functional;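 also: absorbance read-out, biochemical high-throughput dose-response screen for MsrA inhibitors, confirmatory; recombinant bovine MsrA coupled to E. coli TrxB with NADPH and selenocystamine; potency is for inhibitors of MsrA activity on DMSO substrate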
T6 sequence (P54149 whole entry): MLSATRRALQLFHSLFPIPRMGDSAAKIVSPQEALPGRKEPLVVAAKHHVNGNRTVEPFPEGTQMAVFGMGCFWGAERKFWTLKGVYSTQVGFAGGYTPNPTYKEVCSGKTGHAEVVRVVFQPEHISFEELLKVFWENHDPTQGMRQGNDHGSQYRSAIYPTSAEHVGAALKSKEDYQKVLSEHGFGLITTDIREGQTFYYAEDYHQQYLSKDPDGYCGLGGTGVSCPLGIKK

Chain of ATP-dependent molecular chaperone HSP82 (C4YTQ8 whole entry): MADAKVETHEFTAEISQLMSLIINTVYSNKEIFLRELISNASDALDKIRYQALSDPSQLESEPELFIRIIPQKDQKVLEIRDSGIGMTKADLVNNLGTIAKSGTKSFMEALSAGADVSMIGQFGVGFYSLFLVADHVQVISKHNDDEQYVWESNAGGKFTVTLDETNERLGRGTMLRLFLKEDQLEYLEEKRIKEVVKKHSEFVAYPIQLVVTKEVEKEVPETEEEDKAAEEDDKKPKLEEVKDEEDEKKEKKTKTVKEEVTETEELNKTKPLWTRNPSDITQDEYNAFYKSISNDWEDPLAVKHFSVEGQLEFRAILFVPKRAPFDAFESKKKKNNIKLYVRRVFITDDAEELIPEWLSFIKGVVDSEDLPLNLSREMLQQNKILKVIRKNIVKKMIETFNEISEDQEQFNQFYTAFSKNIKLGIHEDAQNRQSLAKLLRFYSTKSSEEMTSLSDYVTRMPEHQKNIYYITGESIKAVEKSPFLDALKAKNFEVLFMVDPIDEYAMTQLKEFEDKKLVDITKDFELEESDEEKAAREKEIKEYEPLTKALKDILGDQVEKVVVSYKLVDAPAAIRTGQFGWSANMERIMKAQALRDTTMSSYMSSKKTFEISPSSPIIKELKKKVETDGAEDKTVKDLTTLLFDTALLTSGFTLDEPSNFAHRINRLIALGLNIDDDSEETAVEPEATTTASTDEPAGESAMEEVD
Chain of Protein Wnt-3a (P27467 whole entry): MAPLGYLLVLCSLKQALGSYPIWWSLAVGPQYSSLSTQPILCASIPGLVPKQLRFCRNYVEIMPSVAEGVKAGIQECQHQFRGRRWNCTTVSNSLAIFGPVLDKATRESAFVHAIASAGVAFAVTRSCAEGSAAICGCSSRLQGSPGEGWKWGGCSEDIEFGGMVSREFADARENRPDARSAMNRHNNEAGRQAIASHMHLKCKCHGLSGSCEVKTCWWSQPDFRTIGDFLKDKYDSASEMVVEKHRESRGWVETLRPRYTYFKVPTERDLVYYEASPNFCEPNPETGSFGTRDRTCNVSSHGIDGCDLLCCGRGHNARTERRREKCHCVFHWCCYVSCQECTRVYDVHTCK
T1 sequence (P63165 whole entry): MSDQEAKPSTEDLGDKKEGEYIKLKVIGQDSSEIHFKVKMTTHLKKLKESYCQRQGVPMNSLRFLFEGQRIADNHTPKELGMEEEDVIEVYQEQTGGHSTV
Chain of Melanocortin receptor 4 (P32245 whole entry): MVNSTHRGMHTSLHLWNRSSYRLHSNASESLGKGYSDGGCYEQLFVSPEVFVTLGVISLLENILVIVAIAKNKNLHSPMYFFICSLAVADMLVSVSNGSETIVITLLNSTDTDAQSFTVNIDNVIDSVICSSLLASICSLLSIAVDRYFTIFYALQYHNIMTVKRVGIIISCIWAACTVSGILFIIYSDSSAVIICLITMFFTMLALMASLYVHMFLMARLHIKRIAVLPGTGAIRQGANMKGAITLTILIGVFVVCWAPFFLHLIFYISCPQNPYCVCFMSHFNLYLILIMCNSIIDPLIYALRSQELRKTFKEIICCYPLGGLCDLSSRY
Chain of Voltage-dependent T-type calcium channel subunit alpha-1H (O95180 whole entry): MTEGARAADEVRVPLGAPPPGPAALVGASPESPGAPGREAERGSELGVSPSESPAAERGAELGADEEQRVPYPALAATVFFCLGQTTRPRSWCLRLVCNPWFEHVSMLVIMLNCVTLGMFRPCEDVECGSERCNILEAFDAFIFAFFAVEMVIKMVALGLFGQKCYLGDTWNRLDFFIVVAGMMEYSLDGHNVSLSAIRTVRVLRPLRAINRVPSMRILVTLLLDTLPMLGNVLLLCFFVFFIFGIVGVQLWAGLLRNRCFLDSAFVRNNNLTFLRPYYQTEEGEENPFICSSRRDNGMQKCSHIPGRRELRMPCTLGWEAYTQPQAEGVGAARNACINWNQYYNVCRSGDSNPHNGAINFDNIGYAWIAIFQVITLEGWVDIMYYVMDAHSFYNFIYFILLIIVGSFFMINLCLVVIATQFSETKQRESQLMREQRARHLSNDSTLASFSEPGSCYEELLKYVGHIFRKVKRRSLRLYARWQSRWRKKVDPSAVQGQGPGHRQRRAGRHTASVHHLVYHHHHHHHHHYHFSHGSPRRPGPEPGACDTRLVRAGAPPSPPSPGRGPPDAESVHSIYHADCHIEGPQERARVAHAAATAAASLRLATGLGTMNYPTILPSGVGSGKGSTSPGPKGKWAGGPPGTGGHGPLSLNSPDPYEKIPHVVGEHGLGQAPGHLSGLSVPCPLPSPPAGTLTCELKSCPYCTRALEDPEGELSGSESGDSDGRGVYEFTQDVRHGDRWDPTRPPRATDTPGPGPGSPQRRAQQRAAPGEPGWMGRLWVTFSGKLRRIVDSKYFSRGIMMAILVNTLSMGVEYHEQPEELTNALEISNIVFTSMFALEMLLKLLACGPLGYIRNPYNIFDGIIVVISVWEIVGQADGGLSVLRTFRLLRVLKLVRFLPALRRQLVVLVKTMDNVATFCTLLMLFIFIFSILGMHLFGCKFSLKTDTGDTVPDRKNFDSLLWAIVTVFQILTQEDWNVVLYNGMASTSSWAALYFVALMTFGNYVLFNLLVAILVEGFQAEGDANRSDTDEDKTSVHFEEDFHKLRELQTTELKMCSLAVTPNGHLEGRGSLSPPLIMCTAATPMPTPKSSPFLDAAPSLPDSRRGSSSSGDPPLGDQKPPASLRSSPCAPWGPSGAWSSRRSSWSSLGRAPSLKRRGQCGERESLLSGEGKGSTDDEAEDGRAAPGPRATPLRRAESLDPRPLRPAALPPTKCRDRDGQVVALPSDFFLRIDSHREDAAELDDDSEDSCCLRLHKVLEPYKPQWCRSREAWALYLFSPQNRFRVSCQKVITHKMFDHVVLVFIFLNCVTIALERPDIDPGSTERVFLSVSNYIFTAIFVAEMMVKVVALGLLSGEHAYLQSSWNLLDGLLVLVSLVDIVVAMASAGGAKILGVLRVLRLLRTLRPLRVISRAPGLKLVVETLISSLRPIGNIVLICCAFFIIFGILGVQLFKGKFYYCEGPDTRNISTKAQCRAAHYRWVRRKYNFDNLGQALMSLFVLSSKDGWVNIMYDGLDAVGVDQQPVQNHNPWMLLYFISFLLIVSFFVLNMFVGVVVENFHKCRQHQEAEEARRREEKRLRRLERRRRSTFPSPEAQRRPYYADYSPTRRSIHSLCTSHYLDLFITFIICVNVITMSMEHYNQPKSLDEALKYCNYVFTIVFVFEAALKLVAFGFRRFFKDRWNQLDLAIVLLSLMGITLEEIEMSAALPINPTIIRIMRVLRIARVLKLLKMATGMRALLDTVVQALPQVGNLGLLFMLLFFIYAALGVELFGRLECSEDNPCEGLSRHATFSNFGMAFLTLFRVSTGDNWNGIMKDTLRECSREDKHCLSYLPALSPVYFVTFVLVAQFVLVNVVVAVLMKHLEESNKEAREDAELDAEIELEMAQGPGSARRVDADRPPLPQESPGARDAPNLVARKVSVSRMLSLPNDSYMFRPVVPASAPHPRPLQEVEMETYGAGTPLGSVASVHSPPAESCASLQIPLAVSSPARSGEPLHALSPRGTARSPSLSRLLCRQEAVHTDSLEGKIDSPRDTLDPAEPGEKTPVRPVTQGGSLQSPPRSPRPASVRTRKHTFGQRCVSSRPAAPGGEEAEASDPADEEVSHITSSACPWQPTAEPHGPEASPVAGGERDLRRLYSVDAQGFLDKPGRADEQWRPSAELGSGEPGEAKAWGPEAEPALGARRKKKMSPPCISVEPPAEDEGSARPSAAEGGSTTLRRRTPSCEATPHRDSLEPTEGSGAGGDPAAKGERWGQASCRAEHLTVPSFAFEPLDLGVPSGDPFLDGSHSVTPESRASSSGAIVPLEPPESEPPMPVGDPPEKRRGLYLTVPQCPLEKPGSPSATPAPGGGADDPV
Chain of Glucose-6-phosphate 1-dehydrogenase (P11413 whole entry): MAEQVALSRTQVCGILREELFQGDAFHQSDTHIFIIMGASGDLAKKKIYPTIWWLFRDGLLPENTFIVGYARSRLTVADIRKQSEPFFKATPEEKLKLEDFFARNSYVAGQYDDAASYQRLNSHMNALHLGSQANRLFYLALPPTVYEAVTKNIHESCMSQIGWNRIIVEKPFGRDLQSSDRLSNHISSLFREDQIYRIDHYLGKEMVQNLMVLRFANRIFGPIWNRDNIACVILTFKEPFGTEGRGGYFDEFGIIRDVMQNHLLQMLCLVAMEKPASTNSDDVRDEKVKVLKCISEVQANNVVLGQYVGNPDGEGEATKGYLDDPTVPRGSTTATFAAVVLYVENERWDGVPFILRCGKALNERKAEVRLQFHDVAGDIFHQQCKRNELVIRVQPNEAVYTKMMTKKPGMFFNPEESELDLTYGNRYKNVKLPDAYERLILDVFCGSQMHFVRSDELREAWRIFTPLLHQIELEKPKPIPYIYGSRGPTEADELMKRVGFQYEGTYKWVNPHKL

Cn1cnnc1SCC(=O)Nc1ccc(OCc2ccccc2)cc1
IC50 [1]: 32 µM (inactive)
IC50 [2]: > 66.6 µM (inactive)

Cc1cc(C)n(-c2nc3ccccc3c(=O)n2OCC#N)n1
AC50 [3]: 0.881 µM (active)
EC50 [4]: 137 µM (active)
EC50 [5]: 1.14 µM (active)
EC50 [6]: > 150 µM (inactive)
CC50 [7]: 8.68 µM (active)
EC50 [8]: 4.32 µM (active)
EC50 [9]: 28.9 µM (active)
AC50 [10]: 4.13 µM (active)
EC50 [11]: > 180 µM (inactive)
EC50 [12]: 150 µM (active)
EC50 [13]: 0.727 µM (active)

O=C(NNc1nc2ccc(Cl)cc2s1)c1cc(-c2cccs2)nc2ccccc12
EC50 [6]: 12.8 µM (active)
EC50 [14]: 0.472 µM (active)
EC50 [15]: > 150 µM (not active)
EC50 [16]: 5.79 µM (active)
EC50 [11]: > 180 µM (inactive)
EC50 [12]: 19.7 µM (active)
AC50 [17]: 2.18 µM (active)
EC50 [13]: 0.433 µM (active)

Cc1nnnn1/C(=C\c1ccccc1)C(=O)OCC(=O)Nc1ccc(Cl)cc1F
EC50 [18]: > 89.2 µM (inactive)
EC50 [19]: > 120 µM (not active)
EC50 [20]: 5.56 µM (active)
EC50 [21]: > 60 µM (not active)

CCC(C(=O)NCCC(C)C)n1ccc2cc(S(=O)(=O)N3CCCCC3)ccc21 (configuration not stated)
IC50 [22]: 5.14 µM (active)

Cc1ccnc(Nc2nc3ccccc3s2)n1
EC50 [23]: > 91.2 µM (inactive)
EC50 [24]: > 91.2 µM (inactive)

CCc1cccc2c(C(=O)COC(=O)c3cccc(S(=O)(=O)N(C)C4CCCCC4)c3)c[nH]c12
AC50 [25]: 30.6 µM (active)

CC(=O)c1cn(CCOc2ccccc2C)c2ccccc12
IC50 [22]: 3.66 µM (active)
IC50 [26]: 8.92 µM (active)

Cc1cc(C)nc(NS(=O)(=O)c2ccc(NC(=S)NC(=O)C3CCCC3)cc2)n1
AC50 [27]: 11.1 µM (active)

Cc1cc(C)nc(NC(N)=Nc2ccccc2-c2ccccc2)n1
IC50 [22]: 16.9 µM (active)
IC50 [28]: > 80 µM (inactive)

O=C(Nc1nnc(-c2ccc3c(c2)CCCC3)o1)c1ccccc1
AC50 [3]: 4.89 µM (active)
EC50 [6]: 4.72 µM (active)
EC50 [29]: 3.25 µM (active)
CC50 [7]: > 25 µM (active)
EC50 [11]: > 180 µM (inactive)
IC50 [30]: > 79 µM (inactive)
EC50 [12]: > 160 µM (inactive)
EC50 [13]: 0.229 µM (active)

COc1ccc2sc(-c3ccc(S(C)(=O)=O)cc3)c(C#Cc3cncn3C)c2c1
EC50 [18]: > 89.2 µM (inactive)

Cc1ccc(C(=O)Nc2nnc(-c3ccccc3)o2)cc1C
AC50 [3]: 14.2 µM (active)

Nc1nc2ccccc2n1/N=C/c1ccc2c(c1)OCO2
IC50 [31]: 45.6 µM (inactive)

C/C(=N\Nc1ccc(C#N)cc1[N+](=O)[O-])c1ccc(O)cc1
IC50 [31]: 155 µM (inactive)

O=C(CCC(=O)Nc1ccc(F)cc1)N/N=C/c1c[nH]c2ccccc12
AC50 [25]: 49 µM (active)
